The record followed here is ChEMBL document CHEMBL6121048 (J Med Chem, 2025).

Data set [1] can be described thus: Apparent permeability across basolateral to apical side in dog MDR1-deficient MDCK cells expressing human MDR1 at 3 uM by LC-MS/MS analysis. Type of data set: ADME, cell-based, Canis lupus familiaris.
A short description of data set [2]: Apparent permeability across apical to basolateral side in dog MDR1-deficient MDCK cells expressing human MDR1 at 3 uM by LC-MS/MS analysis. Type of data set: ADME, cell-based, Canis lupus familiaris.
A short description of data set [3]: Efflux ratio of apparent permeability across basolateral to apical over apical to basolateral side in dog MDR1-deficient MDCK cells expressing human MDR1 at 3 uM by LC-MS/MS analysis. Type of data set: ADME, cell-based, Canis lupus familiaris.
Data set [4] in a line: Metabolic stability in human liver microsomes assessed as half life at 1 uM incubated for 5 mins in presence of NADPH by LC-MS/MS analysis. Type of data set: ADME, Microsome. In general terms: Liver microsomes are vesicles of endoplasmic reticulum, rich in cytochrome P450 enzymes.
Data set [5] concerns the target Glutamate NMDA receptor; Grin1/Grin2a (Rattus norvegicus, UniProt P35439+Q00959). The experiment in a line: Partial agonist activity at recombinant rat GluN1/GluN2A NMDA receptor expressed in xenopus laevis oocytes in presence of L-glutamate by two-electrode voltage-clamp method. The format is cell-based. For orientation: Two-electrode voltage clamp is typically applied to oocytes expressing channels or transporters.

For data set [6], the target named is Ionotropic glutamate receptor NMDA 1/2D (Rattus norvegicus) (UniProt P35439+Q62645). Put plainly: Partial agonist activity at recombinant rat GluN1/GluN2D NMDA receptor expressed in xenopus laevis oocytes by measuring maximum response by two-electrode voltage-clamp method relative to glycine. Type of data set: cell-based.
Data set [7] addresses Ionotropic glutamate receptor NMDA 1/2D (Rattus norvegicus, UniProt P35439+Q62645). Put plainly: Partial agonist activity at recombinant rat GluN1/GluN2D NMDA receptor expressed in xenopus laevis oocytes in presence of L-glutamate by two-electrode voltage-clamp method. Type of data set: cell-based.
Data set [8] has as its target Glutamate NMDA receptor; Grin1/Grin2c (Rattus norvegicus) (UniProt P35439+Q00961). The experiment in a line: Agonist activity at recombinant rat GluN1/GluN2C NMDA receptor expressed in xenopus laevis oocytes by measuring maximum response by two-electrode voltage-clamp method relative to glycine. The settings on record: filed as agonist. Type of data set: cell-based.

Data set [9] concerns the target T1, Glutamate NMDA receptor; Grin1/Grin2b (Rattus norvegicus) (UniProt P35439+Q00960). The experiment in a line: Agonist activity at recombinant rat GluN1/GluN2B NMDA receptor expressed in xenopus laevis oocytes at 30 uM by two-electrode voltage-clamp method relative to control. The format is cell-based.
The target in data set [10] is Glutamate NMDA receptor; Grin1/Grin2a (Rattus norvegicus) (UniProt P35439+Q00959). The experiment in a line: Partial agonist activity at recombinant rat GluN1/GluN2A NMDA receptor expressed in xenopus laevis oocytes by measuring maximum response by two-electrode voltage-clamp method relative to glycine. The format is cell-based. The settings on record: filed as partial agonist.

Data set [11] addresses Glutamate NMDA receptor; Grin1/Grin2c (Rattus norvegicus, UniProt P35439+Q00961). Put plainly: Agonist activity at recombinant rat GluN1/GluN2C NMDA receptor expressed in xenopus laevis oocytes in presence of L-glutamate by two-electrode voltage-clamp method. The format is cell-based.
The target of data set [12] is T1, Glutamate NMDA receptor; Grin1/Grin2b (Rattus norvegicus). Put plainly: Agonist activity at recombinant rat GluN1/GluN2B NMDA receptor expressed in xenopus laevis oocytes at 1 uM by two-electrode voltage-clamp method relative to control. The format is cell-based.
The target is the same in data set [13]. Put plainly: Agonist activity at recombinant rat GluN1/GluN2B NMDA receptor expressed in xenopus laevis oocytes at 10 uM by two-electrode voltage-clamp method relative to control. The format is cell-based.
Data set [14] shares this target. Put plainly: Agonist activity at recombinant rat GluN1/GluN2B NMDA receptor expressed in xenopus laevis oocytes at 3 uM by two-electrode voltage-clamp method relative to control. The format is cell-based.
The species entered for data set [15] is Rattus norvegicus. The experiment in a line: Selectivity ratio of EC50 for partial agonist activity at recombinant rat GluN1/GluN2A NMDA receptor expressed in xenopus laevis oocytes to EC50 for agonist activity at recombinant rat GluN1/GluN2C NMDA receptor expressed in xenopus laevis oocytes. The format is cell-based.
The species entered for data set [16] is Rattus norvegicus. The experiment in a line: Selectivity ratio of EC50 for partial agonist activity at recombinant rat GluN1/GluN2D NMDA receptor expressed in xenopus laevis oocytes to EC50 for agonist activity at recombinant rat GluN1/GluN2C NMDA receptor expressed in xenopus laevis oocytes. The format is cell-based.
Data set [17] is filed under the species Rattus norvegicus. The experiment in a line: Agonist activity at recombinant rat GluN1 V689I mutant receptor expressed in xenopus laevis oocytes assessed as fold reduction by two-electrode voltage-clamp method. The format is cell-based. The settings on record: filed as agonist.
The species entered for data set [18] is Rattus norvegicus. Put plainly: Agonist activity at recombinant rat GluN1 F754L mutant receptor expressed in xenopus laevis oocytes in presence of L-glutamate by two-electrode voltage-clamp method. The format is cell-based.
Data set [19] is filed under the species Rattus norvegicus. Put plainly: Agonist activity at recombinant rat GluN1 Y692L mutant receptor expressed in xenopus laevis oocytes in presence of L-glutamate by two-electrode voltage-clamp method. The format is cell-based.
A short description of data set [20]: Selectivity ratio of EC50 for wild type GluN1/GluN2C receptor to EC50 for GluN1 V689I/2C receptor expressed in xenopus laevis oocytes. Type of data set: cell-based.
Data set [21] is described as follows: Selectivity ratio of EC50 for wild type GluN1/2C receptor to EC50 for GluN1 S688A/2C mutant receptor expressed in xenopus laevis oocytes. Type of data set: cell-based.

pEC50: −log10 of the molar value. Activity calls are given as the source filed them. The rule behind the calls is not given here.

On to `COC(=O)c1ccccc1-c1c2ccc(=N)cc-2oc2cc(N)ccc12.Cl` [RHODAMINE123], for which the Papp came out at 57 nm/s in [1] and 7.7 nm/s in data set [2]. In addition, the Ratio in data set [3] was found to be 7.5.

Regarding `CCc1ccccc1-c1cccc2[nH]c(C(=O)NC[C@@H](N)C(=O)O)cc12`, the Papp is on record as 74 nm/s in [1] and 8.1 nm/s in data set [2]. In [3], the Ratio is given as 9.2. Also, the t1/2 in data set [4] is recorded as over 120 min.

Regarding `COc1ccc(F)cc1-c1ccc(C(=O)NC[C@@H](N)C(=O)O)s1`, the figures for the negative logarithm of the EC50 (pEC50) in data set [5], in [7] and in [11] were 5.97, 5.84 and 6.13, respectively. Further, the Rmax in data set [6] was 23%; in data set [8] it was 306%; in [10], 83%. Besides, the Activity in data set [9] was under 5%.

Take `N[C@H](CNC(=O)c1ccc(-c2ccccc2C(F)(F)F)s1)C(=O)O`: the pEC50 in data set [5] is 6.82; in data set [7], 6.70; in data set [11], 7.06. The Rmax in data set [6] was 24%; in data set [8], 158%; in [10] it was 62%. Further, in [9], the Activity is under 5%.

In the case of `Cc1cc(C(=O)NC[C@@H](N)C(=O)O)sc1-c1ccccc1Br`, the values for the pEC50 in data set [5], in [7] and in [11] were 7.29, 6.92 and 7.60, respectively. For the same compound, the Rmax in [6] came out at 30%; in data set [8] it was 267%; in data set [10], 75%. In data set [12], the Activity was under 5%.

Consider `N[C@H](CNC(=O)c1ccc(-c2cccc(F)c2F)s1)C(=O)O`, for which the pEC50 in [5] was 5.70; in data set [7], 5.45; in [11] it was 6.03. In addition, the values for the Rmax in data set [6] (filed as partial agonist), in data set [8] and in [10] were 41%, 321% and 62%, respectively. Besides, the Activity in data set [9] was under 5%.

Turning to `COc1cccc(F)c1-c1ccc(C(=O)NC[C@@H](N)C(=O)O)s1`, the pEC50 was 6.54 in data set [5], 6.74 in data set [7] and 6.96 in data set [11]. The Rmax in data set [6] is 29%; in data set [8], 179%; in data set [10] it was 67%. The Activity in data set [13] was under 5%.

For the compound `N[C@H](CNC(=O)c1ccc(-c2ccccc2F)s1)C(=O)O`, the pEC50 in data set [5] is 6.06; in data set [7], 6.01; in [11], 6.64. Moreover, the results for the Rmax in data set [6] (filed as partial agonist), in data set [8] and in data set [10] were 45%, 410% and 63%, respectively. Besides, the Activity in data set [9] was under 5%.

For `N[C@H](CNC(=O)c1ccc(-c2cccc3ccccc23)s1)C(=O)O`, the pEC50 in data set [5] is 6.99; in data set [7], 6.52; in data set [11], 6.88. The results for the Rmax in data set [6], in [8] and in data set [10] were 34%, 116% and 59%, respectively. Further, the Activity in data set [14] is under 5%.

As for `N[C@H](CNC(=O)c1cc(Br)c(-c2ccccc2Br)s1)C(=O)O`, the Papp in data set [1] is on record as 74 nm/s; in data set [2], 9 nm/s. In addition, the pEC50 in data set [5] is 7.74; in data set [7], 7.80; in [11], 8.52. For the same compound, the Rmax in data set [6] came to 30%; in data set [8], 430%; in data set [10], 58%. For the same compound, the Ratio EC50 in the data set listed under Rattus norvegicus [15] stood at 6.2; in the data set filed under Rattus norvegicus [16], 5.5. Also, the Ratio in [3] is recorded as 8.2. For the same compound, the Activity in data set [12] was under 5%. Besides, in data set [4], the t1/2 was over 120 min.

Consider `CC(C)OC(=O)[C@H](N)CNC(=O)c1ccc(-c2ccccc2Br)s1`, for which the Papp was 896 nm/s in data set [1] and 1074 nm/s in [2]. The Ratio in data set [3] amounted to 0.83. For the same compound, the t1/2 in data set [4] turned out to be 22 min.

For the compound `CCc1ccccc1-c1ccc(C(=O)NC[C@@H](N)C(=O)O)s1`, the Papp in data set [1] was found to be 14 nm/s; in data set [2] it was 20 nm/s. In addition, the figures for the pEC50 in data set [5], in [7] and in data set [11] were 7.24, 7.09 and 7.39, respectively. Besides, the Rmax was determined as 32% in data set [6], 234% in data set [8] and 77% in [10]. Besides, in the data set filed under Rattus norvegicus [17], the fold change (FC) was 1.3. In addition, the Activity in data set [14] is under 5%. The t1/2 in data set [4] is listed as over 120 min. In addition, the outcome in the data set listed under Rattus norvegicus [18] and in the data set filed under Rattus norvegicus [19] was inactive.

With `N[C@H](CNC(=O)c1ccc(-c2cccc(F)c2)s1)C(=O)O`, the negative logarithm of the EC50 (pEC50) in [5] is 5.43; in data set [7], 5.25; in data set [11] it was 5.73. Besides, the Rmax in data set [6] (filed as partial agonist) was 42%; in [8], 390%; in [10], 61%. For the same compound, the Activity in data set [9] was under 5%.

Turning to `N[C@H](CNC(=O)c1cc(Br)c(-c2ccccc2F)s1)C(=O)O`, the results for the Papp in data set [1] and in data set [2] were 22 nm/s and 16 nm/s, respectively. For the same compound, the Ratio EC50 in data set [20] came to 2.6; in data set [21] it was 1.9; in the data set filed under Rattus norvegicus [15], 6.2; in the data set filed under Rattus norvegicus [16], 7.1. Moreover, the pEC50 in [5] was 6.68; in data set [7], 6.62; in [11], 7.47. Further, the Rmax in [6] (filed as partial agonist) stood at 44%; in data set [8], 864%; in data set [10], 54%. For the same compound, the fold change (FC) in the data set listed under Rattus norvegicus [17] came to 2. In data set [3], the Ratio is 1.4. Also, the t1/2 in data set [4] is given as over 120 min. The Activity in data set [13] was under 5%; in the data set listed under Rattus norvegicus [18] (filed as agonist), “Active; Compound Shows Reduced Efficacy Compared To Wild-Type Glun1/2C”; in the data set filed under Rattus norvegicus [19] (filed as agonist) it was “Active; Compound Shows Reduced Efficacy Compared To Wild-Type Glun1/2C”.

For `N[C@H](CNC(=O)c1ccc(-c2ccccc2Br)s1)C(=O)O`, the values for the Papp in [1] and in data set [2] were 8.8 nm/s and 5.3 nm/s, respectively. The Ratio EC50 in [20] turned out to be 2.9; in [21] it was 1.4. In addition, the pEC50 in [5] was 7.13; in data set [7] it was 7.14; in data set [11], 7.42. The Rmax in data set [6] came to 28%; in [8] it was 156%; in [10] it was 80%. In the data set listed under Rattus norvegicus [17], the fold change (FC) is 1.5. In data set [9], the Activity was under 5%. Further, the Ratio in data set [3] amounted to 1.6. In addition, the t1/2 in data set [4] is over 120 min. The result in the data set filed under Rattus norvegicus [18] and in the data set listed under Rattus norvegicus [19] was inactive.

On to `COc1ccccc1-c1ccc(C(=O)NC[C@@H](N)C(=O)O)s1`, for which the pEC50 in [5] was 5.89; in [7] it was 5.89; in data set [11], 6.18. Also, the Rmax in [6] was found to be 24%; in [8], 293%; in data set [10], 90%. Further, the Activity in data set [9] is under 5%.

`N[C@H](CO)C(=O)O`: the Rmax amounted to 93% in data set [6] (filed as partial agonist), 116% in data set [8] and 102% in data set [10].

Usually Papp stands for a coefficient for how fast a substance crosses the barrier. Broadly, the pEC50 is −log10 of the EC50, conventionally taken in molar units.
